The target of the experiment is Voltage-dependent N-type calcium channel subunit alpha-1B (Homo sapiens, UniProt Q00975). The experiment can be described thus: In vitro N-type [Ca2+] channel blocking potency in IMR-32 human neuroblastoma cells. It counts as functional, cell-based.
Sequence of Voltage-dependent N-type calcium channel subunit alpha-1B (Q00975 whole entry): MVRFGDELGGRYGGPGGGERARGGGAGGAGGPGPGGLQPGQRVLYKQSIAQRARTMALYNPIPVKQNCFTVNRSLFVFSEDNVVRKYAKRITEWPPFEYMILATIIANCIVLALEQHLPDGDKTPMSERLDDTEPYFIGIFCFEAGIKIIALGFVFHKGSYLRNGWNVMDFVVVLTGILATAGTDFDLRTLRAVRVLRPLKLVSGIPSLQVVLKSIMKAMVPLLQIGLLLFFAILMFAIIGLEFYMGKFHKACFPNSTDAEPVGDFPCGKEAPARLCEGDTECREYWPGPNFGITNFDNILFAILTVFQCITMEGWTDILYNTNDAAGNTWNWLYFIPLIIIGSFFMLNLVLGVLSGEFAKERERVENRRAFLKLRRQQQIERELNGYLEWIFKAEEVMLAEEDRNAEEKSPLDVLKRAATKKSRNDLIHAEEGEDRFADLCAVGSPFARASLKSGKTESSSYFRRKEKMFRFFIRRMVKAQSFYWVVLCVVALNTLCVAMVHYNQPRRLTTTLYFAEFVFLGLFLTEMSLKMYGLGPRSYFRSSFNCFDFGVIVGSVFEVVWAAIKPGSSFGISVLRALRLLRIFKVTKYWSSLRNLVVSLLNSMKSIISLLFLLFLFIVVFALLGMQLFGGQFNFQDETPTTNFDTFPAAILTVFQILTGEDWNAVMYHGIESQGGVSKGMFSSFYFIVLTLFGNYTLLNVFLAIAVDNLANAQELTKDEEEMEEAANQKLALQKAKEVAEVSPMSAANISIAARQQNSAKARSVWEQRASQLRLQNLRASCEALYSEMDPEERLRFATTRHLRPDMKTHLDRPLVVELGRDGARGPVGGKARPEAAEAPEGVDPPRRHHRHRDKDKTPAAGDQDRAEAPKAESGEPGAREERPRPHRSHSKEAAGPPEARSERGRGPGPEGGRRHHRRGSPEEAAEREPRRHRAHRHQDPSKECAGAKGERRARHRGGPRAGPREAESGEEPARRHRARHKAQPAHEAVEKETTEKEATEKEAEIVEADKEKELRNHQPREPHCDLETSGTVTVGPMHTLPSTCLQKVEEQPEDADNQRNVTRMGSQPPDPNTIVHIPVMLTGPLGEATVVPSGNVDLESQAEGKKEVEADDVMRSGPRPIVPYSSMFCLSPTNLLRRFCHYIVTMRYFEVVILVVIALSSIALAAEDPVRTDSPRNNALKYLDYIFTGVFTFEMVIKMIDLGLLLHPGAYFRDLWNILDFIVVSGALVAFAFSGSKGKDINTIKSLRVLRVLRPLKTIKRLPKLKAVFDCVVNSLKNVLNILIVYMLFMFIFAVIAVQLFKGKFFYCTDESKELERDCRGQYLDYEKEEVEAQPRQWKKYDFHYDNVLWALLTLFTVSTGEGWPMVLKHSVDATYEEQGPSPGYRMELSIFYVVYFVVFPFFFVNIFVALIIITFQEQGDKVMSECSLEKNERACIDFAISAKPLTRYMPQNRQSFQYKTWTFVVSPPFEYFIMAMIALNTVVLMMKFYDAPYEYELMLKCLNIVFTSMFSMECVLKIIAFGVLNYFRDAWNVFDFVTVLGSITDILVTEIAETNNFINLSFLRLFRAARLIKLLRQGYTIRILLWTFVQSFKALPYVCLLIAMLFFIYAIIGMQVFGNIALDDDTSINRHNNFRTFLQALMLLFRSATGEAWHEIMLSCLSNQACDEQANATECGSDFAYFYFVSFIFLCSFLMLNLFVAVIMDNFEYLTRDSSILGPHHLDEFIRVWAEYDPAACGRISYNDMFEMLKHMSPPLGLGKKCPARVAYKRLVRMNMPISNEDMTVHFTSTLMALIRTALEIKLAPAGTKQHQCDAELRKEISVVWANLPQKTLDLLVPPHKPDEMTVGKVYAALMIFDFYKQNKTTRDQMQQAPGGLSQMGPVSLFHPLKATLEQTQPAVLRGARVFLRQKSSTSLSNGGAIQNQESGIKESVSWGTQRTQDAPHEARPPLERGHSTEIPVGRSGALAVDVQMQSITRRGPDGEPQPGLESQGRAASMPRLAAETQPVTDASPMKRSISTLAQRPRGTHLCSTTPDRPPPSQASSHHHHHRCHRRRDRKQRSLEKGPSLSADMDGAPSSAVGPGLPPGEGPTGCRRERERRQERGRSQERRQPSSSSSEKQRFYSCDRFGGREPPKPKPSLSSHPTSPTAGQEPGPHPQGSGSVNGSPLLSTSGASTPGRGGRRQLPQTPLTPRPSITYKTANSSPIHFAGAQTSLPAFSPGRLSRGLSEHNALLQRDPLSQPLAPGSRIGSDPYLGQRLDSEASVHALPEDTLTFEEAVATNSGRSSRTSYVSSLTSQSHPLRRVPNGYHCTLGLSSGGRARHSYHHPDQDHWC
For `CC(C)CCN1CCC(C(=O)N[C@@H](Cc2ccc(OC(=O)c3ccccc3)cc2)C(=O)OC(C)(C)C)CC1`, the IC50 came to 1.5 µM.

For `CC(C)CCN(C)CC(=O)N[C@@H](Cc1ccc(OC(=O)c2ccccc2)cc1)C(=O)NC(C)(C)C`, the IC50 was determined as 1.6 µM.

On to `CC(C)CCN1C(C)CCCC1C(=O)N[C@@H](Cc1ccc(OC(=O)c2ccccc2)cc1)C(=O)OC(C)(C)C` (some centres not stated), for which the IC50 came to 0.32 µM.

Turning to `CC(C)CCN1CCCCC1C(=O)N[C@@H](Cc1ccc(OC(=O)c2ccccc2)cc1)C(=O)OC(C)(C)C` (some centres not stated), the IC50 came out at 1 µM.

For the molecule `CC(C)CCN1CCN(C)CC1C(=O)N[C@@H](Cc1ccc(OC(=O)c2ccccc2)cc1)C(=O)OC(C)(C)C` (some centres not stated), the half-maximal inhibitory concentration (IC50) turned out to be 1 µM.

For `CC(C)CCN1CCCC(C)C1C(=O)N[C@@H](Cc1ccc(OC(=O)c2ccccc2)cc1)C(=O)OC(C)(C)C` (some centres not stated), the IC50 came to 1.1 µM.

For `CC(C)CCN[C@@H](CC(C)C)C(=O)N[C@@H](Cc1ccc(OC(=O)c2ccccc2)cc1)C(=O)OC(C)(C)C`, the IC50 amounted to 0.4 µM.

`CC(C)CCN[C@@H](CC(C)C)C(=O)N[C@@H](Cc1ccc(OC(=O)c2ccccc2)cc1)C(=O)NC(C)(C)C`: the IC50 was determined as 0.3 µM.

As for `CC(C)CCN(C)[C@H](CC(C)C)C(=O)N[C@@H](Cc1ccc(OC(=O)c2ccccc2)cc1)C(=O)NC(C)(C)C`, the IC50 stood at 0.37 µM.

Regarding `CC(C)CCN1CCC(C(C)C)CC1C(=O)N[C@@H](Cc1ccc(OC(=O)c2ccccc2)cc1)C(=O)OC(C)(C)C` (some centres not stated), the IC50 came to 0.49 µM.

Regarding `CC(C)CCN(C)[C@H](C(=O)N[C@@H](Cc1ccc(OC(=O)c2ccccc2)cc1)C(=O)NC(C)(C)C)C(C)C`, the IC50 was 0.83 µM.

In the case of `CC(C)CCN1CCC(C)CC1C(=O)N[C@@H](Cc1ccc(OC(=O)c2ccccc2)cc1)C(=O)OC(C)(C)C` (some centres not stated), the IC50 is 0.78 µM.

The values are drawn from ChEMBL document CHEMBL1131677, “Synthesis and biological evaluation of substituted 4-(OBz)phenylalanine derivatives as novel N-type calcium channel blockers” (Bioorg Med Chem Lett, 1999).
